For experiment [1], the system named is MOLM-13. As to the kind of experiment: MOLM-13 MTS cell viability assay. It is filed as cell-based. The note with it: Homo sapiens, leukemia cell line, 72 hours. The procedure:
(§1) A study was carried out as follows to evaluate in vitro anticancer activity of certain compounds prepared according to EXAMPLE 1 using cell lines and MTS cell viability assays (MTS represents 3-(4,5-dimethylthiazol-2-yl)-5-(3-carboxymethoxyphenyl)-2-(4-sulfophenyl)-2H-tetrazolium).
(§2) Leukemia cell lines MOLM-13, MV4:11, and Kasumin-1 were purchased from American Type Culture Collection (ATCC, Manassas, Va., USA). The human gastrointestinal stromal tumor GIST-T1 cell line was purchased from Cosmo Bio Co., LTD (Tokyo, Japan). All leukemia cell lines were maintained in RPMI 1640 medium supplemented with 10% fetal bovine serum (FBS), 10 U/ml penicillin, and 10 µg/ml streptomycin at 37° C. and 5% CO2. The cell line GIST-T1 was cultured in DMEM medium supplemented with 10% FBS, 0.01% nonessential amino acids, 10 U/ml penicillin, and 10 µg/ml streptomycin.
(§3) Cells were seeded in 96-well culture plates at a density of 1×10^4 cells/100 μl/well in triplicates and were treated for 72 hours with an indicated concentration of test compound ranging from 1 nM to 10 μM. Colorimetric CellTiter 96® Aqueous One Solution Cell Proliferation assay (MTS assay; Promega, Madison, Wis., USA) was used to determine the cytotoxicity. The optical density at 492 nm was measured using a microplate photometer (Victor2; Perkin-Elmer, Waltham, Mass., USA). IC50 values were determined by MTS assay when cells were treated with test compound for 72 hours and calculated with GraphPad Prism 6. Each experiment was in triplicate.

Experiment [2] relates to MV4:11. Put plainly: MV4:11 MTS cell viability assay. It is filed as cell-based. The note with it: Homo sapiens, leukemia cell line, 72 hours. How it is done:
as §1, §2, §3

Experiment [3] concerns Kasumi-1. Put plainly: Kasumi-1 MTS cell viability assay. It is filed as cell-based. The conditions noted are these: Homo sapiens, leukemia cell line, 72 hours. How it is done: as §1, §2, §3
On the technique in general: Tetrazolium assays rely on reduction of a dye to a coloured formazan, in cell work by metabolically active cells.

The subject of experiment [4] is GIST-T1. Put plainly: GIST-T1 MTS assay. It is filed as cell-based. The note with it: Homo sapiens, GISTT1; gastrointestinal stromal tumor cell line, 72 hours. How it is done: as §1, §2
as §3, with “GIST-T1 cells” for “Cells”, “8000” for “1×10^4”

Experiment [5] has as its system GIST430. As to the kind of experiment: GIST430 cell proliferation assay. It is filed as cell-based. The conditions noted are these: Homo sapiens, 120 hours. How it is done:
(§4) GIST882, GIST48 and GIST430 cells were all cultured in incubators maintained at 37° C. and 5% CO2. GIST882 was cultured in RPMI-1640 supplemented with 20% fetal bovine serum (FBS). GIST48 was cultured with F10 supplemented with 20% FBS, 0.5% Mito, serum extender (BD Bioscience, 355006) and 1% pituitary extract bovine (BD Bioscience 354123). GIST430 was cultured in IMDM supplemented with 20% FBS. GIST882, GIST430 and GIST48 cells were provided by Dr. Jonathan A. Fletcher (Harvard Medical School, US).
(§5) GIST cells (4×10^4) were treated with different dosage of compounds. The treated GIST882 cells were incubated for 144 hours and GIST48 and GIST430 cells were incubated for 120 hours at 37° C. in 5% CO2. Cell proliferation was determined by incubating the cells with […] (Clontech, Calif., US) for 1 hour. The absorbance was measured at 450 nm using SpectraMax M5 microplate reader (Molecular Devices, US).

For experiment [6], the system named is GIST48. As to the kind of experiment: GIST48 cell proliferation assay. It is filed as cell-based. The note with it: Homo sapiens, 120 hours. The procedure:
as §4, §5

In experiment [7] the test system is GIST882. As to the kind of experiment: GIST882 cell proliferation assay. The note with it: Homo sapiens, 144 hours. It is filed as cell-based. How it is done:
as §4, §5

Experiment [8] addresses T1, VEGFR2 (Homo sapiens, UniProt P35968).
T1 construct: The recombinant GST-VEGFR2 (residues V789-V1356) containing kinase domain; GST; made in house; host or cells: Sf9 insect cells
Put plainly: VEGFR2 Kinase-Glo kinase assay. The note with it: GST-VEGFR2, 1 μM ATP, 30° C. 120 minutes. It is filed as biochemical. The procedure:
The recombinant GST-VEGFR2 (residues V789-V1356) containing kinase domain was expressed in Sf9 insect cells. The kinase assay was carried out in 96-well plates with tested compound in a final volume of 50 μl reaction at 30° C. for 120 minutes with following components: 25 mM HEPES pH 7.4, 10 mM MgCl2, 4 mM MnCl2, 0.5 mM Na3VO4, 2 mM DTT, 0.02% Triton X100, 0.01% BSA, 1 μM ATP, 2 μM polyGlu4:Tyr peptide, 50˜100 ng recombinant VEGFR2. Following incubation, 50 μl Kinase-Glo Plus Reagent (Promega, Madison, Wis., USA) was added to each well and the mixture was incubated at 25° C. for 20 min. A 70-μL aliquot of each reaction mixture was transferred to a black microtiter plate and the luminescence was measured on Wallac Vector 1420 multilabel counter (PerkinElmer, Shelton, Conn., USA).
(Kinase-Glo reads ATP consumption through a luciferase reaction.)

Among the data in patent US10300061B2, “Aminothiazole compounds as protein kinase inhibitors” (priority 2017, dated 2019) are GI50 and IC50 values, retold here.

Where a name gives a salt, the structure may show the parent alone.

T1 sequence (P35968 789-1356): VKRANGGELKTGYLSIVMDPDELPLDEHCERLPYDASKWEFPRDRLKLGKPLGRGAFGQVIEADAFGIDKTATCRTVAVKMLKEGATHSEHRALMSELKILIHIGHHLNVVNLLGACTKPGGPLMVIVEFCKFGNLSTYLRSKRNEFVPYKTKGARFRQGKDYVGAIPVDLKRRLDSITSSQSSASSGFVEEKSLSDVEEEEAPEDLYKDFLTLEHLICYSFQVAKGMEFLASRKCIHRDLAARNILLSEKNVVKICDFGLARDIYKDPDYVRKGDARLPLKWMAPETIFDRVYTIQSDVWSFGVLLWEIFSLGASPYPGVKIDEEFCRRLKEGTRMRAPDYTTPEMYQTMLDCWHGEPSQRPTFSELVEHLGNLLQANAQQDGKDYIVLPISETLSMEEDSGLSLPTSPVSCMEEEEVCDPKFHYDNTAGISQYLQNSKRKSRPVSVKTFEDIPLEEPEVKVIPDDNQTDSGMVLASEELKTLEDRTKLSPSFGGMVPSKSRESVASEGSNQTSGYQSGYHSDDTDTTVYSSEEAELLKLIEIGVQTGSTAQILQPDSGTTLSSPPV

For `CCN1CCN(c2cc(Nc3ncc(-c4cncnc4)s3)nc(C)n2)CC1` [Compound 12, [6-(4-Ethyl-piperazin-1-yl)-2-methyl-pyrimidin-4-yl]-(5-pyrimidin-5-yl-thiazol-2-yl)-amine hydrochloride salt], the GI50 – broadly, the concentration at which growth is held to half of that of the control – in experiment [1] was 0.211 µM; in experiment [2] it was 0.132 µM; in experiment [3], 0.349 µM; in experiment [4] it was 0.119 µM.
Turning to `CCN1CCN(c2cc(Nc3ncc(-c4cccnc4)s3)nc(C)n2)CC1` [Compound 7, [6-(4-Ethyl-piperazin-1-yl)-2-methyl-pyrimidin-4-yl]-(5-pyridin-3-yl-thiazol-2-yl)-amine hydrochloride salt], the GI50 in experiment [1] was found to be 0.062 µM; in experiment [2] it was 0.034 µM; in experiment [3] it was 0.266 µM; in experiment [4], 0.053 µM; in experiment [5], 0.06 µM; in experiment [6], 0.82 µM. Moreover, the GI50 in experiment [7] came out at 0.02 µM.
Take `Cc1nc(Nc2ncc(-c3cccnc3)s2)cc(N2CCN(CCO)CC2)n1` [Compound 9, 2-{4-[2-Methyl-6-(5-pyridin-3-yl-thiazol-2-ylamino)-pyrimidin-4-yl]-piperazin-1-yl}-ethanol hydrochloride salt]: the half-inhibitory concentration (IC50) (as a rule, the concentration that inhibits the measured activity by half) in experiment [8] was below 0.03 µM.
As for `Cc1nc(Nc2ncc(-c3cccnc3)s2)cc(N2CCC(N(C)C)CC2)n1` [Compound 10, [6-(4-Dimethylamino-piperidin-1-yl)-2-methyl-pyrimidin-4-yl]-(5-pyridin-3-yl-thiazol-2-yl)-amine hydrochloride salt], the IC50 in experiment [8] is below 0.03 µM.
As for `CCN1CCN(c2cc(Nc3ncc(-c4ccncc4)s3)nc(C)n2)CC1` [Compound 1, [6-(4-Ethyl-piperazin-1-yl)-2-methyl-pyrimidin-4-yl]-(5-pyridin-4-yl-thiazol-2-yl)-amine hydrochloride salt], in experiment [8], the half-inhibitory concentration (IC50) was below 0.03 µM. In addition, the concentration for 50% growth inhibition (GI50) in experiment [1] turned out to be 0.01 µM; in experiment [2], 0.013 µM; in experiment [3], 0.011 µM; in experiment [4] it was 0.011 µM; in experiment [5], 0.0038 µM; in experiment [6] it was 0.019 µM. Besides, in experiment [7], the concentration for 50% growth inhibition (GI50) worked out at 0.005 µM.
